Reference: US10875876B2, “Cyclized sulfamoylarylamide derivatives and the use thereof as medicaments for the treatment of hepatitis B” (priority 2015, dated 2020)
Like-named read-outs stand apart in the source and are kept apart here.

Legend:
HBV = experiment: anti HBV activity, HepG2.117 cell line, intracellular HBV DNA by realtime PCR; type: cell-based; conditions: HepG2.117 cell line (Tet-off), 3 days of treatment, intracellular HBV DNA quantified by realtime PCR, read-out: HBV-AVE-HepG2.117 EC50
Summary of the method: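 HepG2.117 cells, a Tet-off line that replicates HBV without doxycycline, were induced and then treated in duplicate with serially diluted compound. After 3 days, intracellular HBV DNA was quantified by real-time PCR with an HBV-specific primer set and probe.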

HepG2 cells = experiment: Cytotoxicity in HepG2 cells, Resazurin assay; conditions: read-out: TOX-HepG2-4 d CC50; HepG2 cells incubated for 4 days, viability by Resazurin assay
[1] = Hepatitis B virus, HepG2.117, 72 h

SMILES	EC50 (HBV) [nM]	CC50 (HepG2 cells) [nM]	EC50 (HBV; [1]) [nM]
Cc1cc(CC2(C)COc3c(cn(C)c3C(=O)Nc3ccc(F)c(F)c3)S(=O)(=O)N2)no1 (single isomer, unassigned) [Compound 162b, N-(3,4-difluorophenyl)-3,7-dimethyl-3-[(5-methylisoxazol-3-yl)methyl]-1,1-dioxo-2,4-dihydropyrrolo[3,4-b][1,4,5]oxathiazepine-6-carboxamide]	11	> 25000	–
Cc1cccc(C2(C)COc3c(cn(C)c3C(=O)Nc3ccc(F)c(F)c3)S(=O)(=O)N2)n1 (single isomer, unassigned) [Compound 168b, N-(3,4-difluorophenyl)-3,7-dimethyl-3-(6-methyl-2-pyridyl)-1,1-dioxo-2,4-dihydropyrrolo[3,4-b][1,4,5]oxathiazepine-6-carboxamide]	15	> 25000	–
Cc1cc(CC2(C)COc3c(cn(C)c3C(=O)Nc3cc(F)c(F)c(F)c3)S(=O)(=O)N2)no1 (single isomer, unassigned) [Compound 170b, 3,7-dimethyl-3-[(5-methylisoxazol-3-yl)methyl]-1,1-dioxo-N-(3,4,5-trifluorophenyl)-2,4-dihydropyrrolo[3,4-b][1,4,5]oxathiazepine-6-carboxamide]	–	> 25000	7
Cc1cccc(CC2(C)COc3c(cn(C)c3C(=O)Nc3ccc(F)c(F)c3)S(=O)(=O)N2)n1 (single isomer, unassigned) [Compound 172b, N-(3,4-difluorophenyl)-3,7-dimethyl-3-[(6-methyl-2-pyridyl)methyl]-1,1-dioxo-2,4-dihydropyrrolo[3,4-b][1,4,5]oxathiazepine-6-carboxamide]	64	> 25000	–
Cc1cc(CC2(C)COc3c(cn(C)c3C(=O)Nc3ccc(F)c(F)c3)S(=O)(=O)N2)n(C)n1 (single isomer, unassigned) [Compound 175b, N-(3,4-difluorophenyl)-3-[(2,5-dimethylpyrazol-3-yl)methyl]-3,7-dimethyl-1,1-dioxo-2,4-dihydropyrrolo[3,4-b][1,4,5]oxathiazepine-6-carboxamide]	3	> 25000	–
Cc1cccc(C2(C)COc3c(cn(C)c3C(=O)Nc3ccc(F)c(C(F)F)c3)S(=O)(=O)N2)n1 (single isomer, unassigned) [Compound 177b, N-[3-(difluoromethyl)-4-fluoro-phenyl]-3,7-dimethyl-3-(6-methyl-2-pyridyl)-1,1-dioxo-2,4-dihydropyrrolo[3,4-b][1,4,5]oxathiazepine-6-carboxamide]	–	> 25000	4
Cn1ccc(C2(C)COc3c(cn(C)c3C(=O)Nc3ccc(F)c(F)c3)S(=O)(=O)N2)n1 (single isomer, unassigned) [Compound 192b, N-(3,4-difluorophenyl)-3,7-dimethyl-3-(1-methylpyrazol-3-yl)-1,1-dioxo-2,4-dihydropyrrolo[3,4-b][1,4,5]oxathiazepine-6-carboxamide]	24	> 25000	–
Cn1cc2c(c1C(=O)Nc1ccc(F)c(F)c1)OCC(C)(Cc1cccnc1)NS2(=O)=O (single isomer, unassigned) [Compound 199b, N-(3,4-difluorophenyl)-3,7-dimethyl-1,1-dioxo-3-(3-pyridylmethyl)-2,4-dihydropyrrolo[3,4-b][1,4,5]oxathiazepine-6-carboxamide]	8	> 25000	–
Cn1cc2c(c1C(=O)Nc1ccc(F)c(F)c1)OCC(C)(CO)NS2(=O)=O (single isomer, unassigned) [Compound 203b, N-(3,4-difluorophenyl)-3-(hydroxymethyl)-3,7-dimethyl-1,1-dioxo-2,4-dihydropyrrolo[3,4-b][1,4,5]oxathiazepine-6-carboxamide]	59	> 25000	–
Cn1cc2c(c1C(=O)Nc1ccnc(Cl)c1)OCC(C)(CO)NS2(=O)=O (single isomer, unassigned) [Compound 204b, N-(2-chloro-4-pyridyl)-3-(hydroxymethyl)-3,7-dimethyl-1,1-dioxo-2,4-dihydropyrrolo[3,4-b][1,4,5]oxathiazepine-6-carboxamide]	> 125	> 25000	–
Cc1cc(NC(=O)c2c3c(cn2C)S(=O)(=O)N[C@@H](C(O)C2CC2)CO3)ccc1F (single isomer, unassigned) [Compound 206b, 3-[cyclopropyl(hydroxy)methyl]-N-(4-fluoro-3-methyl-phenyl)-7-methyl-1,1-dioxo-3,4-dihydro-2H-pyrrolo[3,4-b][1,4,5]oxathiazepine-6-carboxamide]	12	> 25000	–
Cn1cc2c(c1C(=O)Nc1ccc(F)c(Cl)c1)OC[C@H](C(O)C1CC1)NS2(=O)=O (single isomer, unassigned) [Compound 207b, N-(3-chloro-4-fluoro-phenyl)-3-[cyclopropyl(hydroxy)methyl]-7-methyl-1,1-dioxo-3,4-dihydro-2H-pyrrolo[3,4-b][1,4,5]oxathiazepine-6-carboxamide]	5	> 25000	–
Cn1cc2c(c1C(=O)Nc1cc(F)c(F)c(F)c1)OC[C@H](C(O)C1CC1)NS2(=O)=O (single isomer, unassigned) [Compound 208b, 3-[cyclopropyl(hydroxy)methyl]-7-methyl-1,1-dioxo-N-(3,4,5-trifluorophenyl)-3,4-dihydro-2H-pyrrolo[3,4-b][1,4,5]oxathiazepine-6-carboxamide]	11	> 25000	–
Cc1cc(CC2(C)COc3c(cn(C)c3C(=O)Nc3ccnc(C(F)F)c3)S(=O)(=O)N2)no1 (single isomer, unassigned) [Compound 209b, N-[2-(difluoromethyl)-4-pyridyl]-3,7-dimethyl-3-[(5-methylisoxazol-3-yl)methyl]-1,1-dioxo-2,4-dihydropyrrolo[3,4-b][1,4,5]oxathiazepine-6-carboxamide]	18	> 25000	–
Cn1cc2c(c1C(=O)Nc1ccc(F)c(C#N)c1)OCC(C)(CO)NS2(=O)=O (single isomer, unassigned) [Compound 210b, N-(3-cyano-4-fluoro-phenyl)-3-(hydroxymethyl)-3,7-dimethyl-1,1-dioxo-2,4-dihydropyrrolo[3,4-b][1,4,5]oxathiazepine-6-carboxamide]	34	> 25000	–
Cc1cc(CC2(C)COc3c(cn(C)c3C(=O)Nc3ccnc(Cl)c3)S(=O)(=O)N2)no1 (single isomer, unassigned) [Compound 213b, N-(2-chloro-4-pyridyl)-3,7-dimethyl-3-[(5-methylisoxazol-3-yl)methyl]-1,1-dioxo-2,4-dihydropyrrolo[3,4-b][1,4,5]oxathiazepine-6-carboxamide]	16	> 25000	–
Cn1cc2c(c1C(=O)Nc1cc(F)c(F)c(F)c1)OCC(C)(CO)NS2(=O)=O (single isomer, unassigned) [Compound 214b, 3-(hydroxymethyl)-3,7-dimethyl-1,1-dioxo-N-(3,4,5-trifluorophenyl)-2,4-dihydropyrrolo[3,4-b][1,4,5]oxathiazepine-6-carboxamide]	22	> 25000	–
Cn1cc2c(c1C(=O)Nc1ccnc(C(F)F)c1)OCC(C)(CO)NS2(=O)=O (single isomer, unassigned) [Compound 215b, N-[2-(difluoromethyl)-4-pyridyl]-3-(hydroxymethyl)-3,7-dimethyl-1,1-dioxo-2,4-dihydropyrrolo[3,4-b][1,4,5]oxathiazepine-6-carboxamide]	> 125	> 25000	–
Cn1ccc(CC2(C)COc3c(cn(C)c3C(=O)Nc3ccnc(C(F)F)c3)S(=O)(=O)N2)n1 (single isomer, unassigned) [Compound 217b, N-[2-(difluoromethyl)-4-pyridyl]-3,7-dimethyl-3-[(1-methylpyrazol-3-yl)methyl]-1,1-dioxo-2,4-dihydropyrrolo[3,4-b][1,4,5]oxathiazepine-6-carboxamide]	100	> 25000	–
CC(NCC(F)(F)F)C1CCc2c(cn(C)c2C(=O)Nc2cc(F)c(F)c(F)c2)S(=O)(=O)N1 (single isomer, unassigned) [Compound 218b, 7-methyl-1,1-dioxo-3-[1-(2,2,2-trifluoroethylamino)ethyl]-N-(3,4,5-trifluorophenyl)-2,3,4,5-tetrahydropyrrolo[3,4-f]thiazepine-6-carboxamide]	79	> 25000	–
CC(NCC(F)(F)F)C1CCc2c(cn(C)c2C(=O)Nc2cc(F)c(F)c(F)c2)S(=O)(=O)N1 (single isomer, unassigned) [Compound 218d, 7-methyl-1,1-dioxo-3-[1-(2,2,2-trifluoroethylamino)ethyl]-N-(3,4,5-trifluorophenyl)-2,3,4,5-tetrahydropyrrolo[3,4-f]thiazepine-6-carboxamide]	21	> 25000	–
Cc1cc(CC2(C)COc3c(cn(C)c3C(=O)Nc3ccc(F)c(C#N)c3)S(=O)(=O)N2)no1 (single isomer, unassigned) [Compound 220b, N-(3-cyano-4-fluoro-phenyl)-3,7-dimethyl-3-[(5-methylisoxazol-3-yl)methyl]-1,1-dioxo-2,4-dihydropyrrolo[3,4-b][1,4,5]oxathiazepine-6-carboxamide]	34	> 25000	–
Cn1cc2c(c1C(=O)Nc1ccc(F)c(F)c1)OC[C@H](C(O)C1CC1)NS2(=O)=O (stereo partly drawn) [Compound 105b, (3R)-3-[cyclopropyl(hydroxy)methyl]-N-(3,4-difluorophenyl)-7-methyl-1,1-dioxo-3,4-dihydro-2H-pyrrolo[3,4-b][1,4,5]oxathiazepine-6-carboxamide]	11	> 25000	–
